Laboratory results reported in EP4813381A1, “PHARMACEUTICAL USE OF GUAIANE SESQUITERPENE DERIVATIVE” (Nanjing University Of Chinese Medicine, priority 2023, dated 2025).
Values after ≈ are worked out from the molar mass of the structure shown.

Columns and labels:
[1] = test system: CCR2 mRNA; experiment: CCR2 mRNA level in MDSCs (PCR); type: cell-based, mice; conditions: CCR2 mRNA levels in MDSCs, 2 h
Procedure: Mice were euthanized by cervical dislocation and immersed in 75% ethanol solution for 5 min. Under sterile conditions, the tibia was removed, both ends of the bone were cut, and bone marrow was repeatedly flushed into a 15 mL centrifuge tube using a 1 mL syringe filled with culture medium. Centrifuge at 1600 rpm for 5 min to collect bone marrow cells. Wash twice with 1×PBS, then resuspend in RPMI 1640 complete medium containing GM-CSF (10 ng/mL) + IL-4 (10 ng/mL) and transfer to a cell culture dish to stimulate differentiation of bone marrow cells into MDSCs. Count cells and adjust density to 1 × 10^6 cells/mL in complete medium. Seed cells uniformly into 6-well plates at 2 mL per well. […] After incubation, collect cells into centrifuge tubes, centrifuge at 1600 rpm for 5 min, wash once with 1×PBS, and add 500 µL RNA extraction reagent to each tube. After centrifugation to obtain the pellet, add 20 µL DEPC-treated water to each tube to dissolve the pellet. Determine RNA concentration and reverse transcribe to cDNA. Add the cDNA, primers, and reverse transcriptase to a 96-well plate. Centrifuge at 4000 rpm for 5 min, then place in a PCR instrument for detection.

[2] = test system: Hepa1-6 cells; experiment: Hepa1-6 mouse hepatocellular carcinoma subcutaneous xenograft model; type: in vivo, C57BL/6 mice
Procedure: (§1) Hepa1-6 cells were cultured and expanded in vitro. An appropriate amount of cells in the logarithmic growth phase was resuspended in a mixture of serum-free DMEM medium and Matrigel (1:1). under aseptic conditions to prepare a 2.5×10^6/100 µL cell suspension. A 100 µL aliquot of this suspension was injected subcutaneously into the left forearm axilla of male C57BL/6 mice. […] Daily oral administration was performed for 2 weeks. During the treatment period, mouse body weight and tumor diameter were measured daily. At the end of the experiment, mice were euthanized by cervical dislocation, and tumors were removed for weighing. Tumor volume (TV) was calculated using the formula: TV = 1/2 × a × b^2, where a represents the longest diameter of the tumor and b represents the shortest diameter.

[3] = gastric fluid, within 8 hours; cited from earlier work
[4] = biological target: farnesyltransferase (FTase) (Homo sapiens, UniProt P49354+P49356); conditions: in vitro; cited from earlier work
Chain of farnesyltransferase (FTase) (P49356 whole entry, one chain of several): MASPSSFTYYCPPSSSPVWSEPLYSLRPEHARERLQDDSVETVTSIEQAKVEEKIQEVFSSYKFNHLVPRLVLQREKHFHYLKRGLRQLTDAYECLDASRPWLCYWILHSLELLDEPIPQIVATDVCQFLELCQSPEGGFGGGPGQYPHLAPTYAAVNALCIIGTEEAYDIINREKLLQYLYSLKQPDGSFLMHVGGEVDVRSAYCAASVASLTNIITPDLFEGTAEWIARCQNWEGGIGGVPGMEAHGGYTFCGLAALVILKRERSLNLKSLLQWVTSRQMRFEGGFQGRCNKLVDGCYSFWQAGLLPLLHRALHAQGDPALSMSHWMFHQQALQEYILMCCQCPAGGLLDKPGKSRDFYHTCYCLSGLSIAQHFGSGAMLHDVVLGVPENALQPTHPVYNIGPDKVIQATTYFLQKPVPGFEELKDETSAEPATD

[5] = test system: MDSCs; experiment: Inhibition of MDSC chemotaxis (Transwell, Hepa1-6 tumor-conditioned medium); type: cell-based, mice; conditions: 12 h treatment, 24 h Transwell
Procedure: Hepa1-6 mouse hepatocellular carcinoma cells were uniformly seeded into 6-well plates. After cells reached confluence, supernatant was aspirated, and 1-1.5 mL fresh medium was added to each well. Following 24 h culture, supernatant was collected, centrifuged at 1600 rpm for 5 min, aspirated, and filtered through a 0.22 µm membrane to obtain tumor-conditioned medium for subsequent use. Euthanize mice by cervical dislocation and immerse in 75% ethanol solution for 5 min. Under sterile conditions, remove the tibia, cut both ends of the bone, and aspirate the bone marrow into a 1 mL syringe. Repeat flushing into a 15 mL centrifuge tube. Centrifuge at 1600 rpm for 5 min to collect bone marrow cells. Wash twice with 1×PBS. Resuspend cells in complete RPMI 1640 medium containing cytokines GM-CSF (10 ng/mL) and IL-4 (10 ng/mL) to stimulate differentiation into MDSCs. Count cells, adjust density to 1×10^6 cells/mL, and uniformly seed into 24-well plates at 300 µL per well. […] Centrifuge at 1600 rpm for 5 min, remove supernatant, resuspend cells in 300 µL fresh medium, and place into Transwell chambers. Add 600 µL normal medium (control group) or tumor-conditioned medium (model group) to the lower chamber. Co-culture for 24 h.

[6] = test system: H22 cells; design: species or system BALB/c mice; conditions: mouse, in vivo, po
Procedure: as §1, with “H22” for “Hepa1-6”, “An appropriate amount of cells in the logarithmic growth phase was resuspended in a mixture of serum-free DMEM medium and Matrigel (1:1). under aseptic conditions to prepare a 2.5×10^6/100 µL cell suspension.” left out, “forelimb” for “forearm”, “BALB/c” for “C57BL/6”

[7] = in vivo; cited from earlier work
[8] = test system: CT26 cells; type: in vivo, BALB/c mice
[9] = test system: MDSCs; T cells; design: species or system BALB/c mice; conditions: mouse, in vivo, po
Procedure: as §1, with “H22” for “Hepa1-6”, “An appropriate amount of cells in the logarithmic growth phase was resuspended in a mixture of serum-free DMEM medium and Matrigel (1:1). under aseptic conditions to prepare a 2.5×10^6/100 µL cell suspension.” left out, “forelimb” for “forearm”, “BALB/c” for “C57BL/6”
Once all tumors were dissected, nail-sized tumor pieces were transferred to 1.5 mL Eppendorf tubes and minced with scissors. […] After digestion, pass the mixture through a 200-mesh sieve to obtain the tumor cell suspension. […] Position the spleen on a 200-mesh cell strainer. Gently press the spleen using a 10 mL syringe needle. […] Transfer the washed splenocyte suspension into a 15 mL centrifuge tube. Centrifuge at 1600 rpm for 5 min to collect cells. Wash once with 1×PBS. Add 3 mL red blood cell lysis buffer (diluted with ddH2O) to each tube and incubate for 5 min. After lysis, add 10 mL 1×PBS to each tube to terminate lysis. Centrifuge at 1600 rpm for 5 min. Add 1 mL 1×PBS to each 15 mL centrifuge tube, transfer to 1.5 mL EP tubes, and centrifuge at 1600 rpm for 5 min. Add 1 mL 1×PBS to each tube containing stained tumor cells and lysed spleen cells for one wash, centrifuge at 1600 rpm for 5 min, and remove the supernatant.
Once all tumors were dissected, nail-sized tumor pieces were transferred to 1.5 mL Eppendorf tubes and minced with scissors. […] After digestion, pass the mixture through a 200-mesh sieve to obtain the tumor cell suspension. Centrifuge the resulting tumor suspension at 1600 rpm for 5 min, aspirate the supernatant, resuspend cells in 1 mL of 1×PBS per tube. […] Position the spleen on a 200-mesh cell strainer. Gently press the spleen using a 10 mL syringe needle. […] Transfer the splenocyte suspension into a 15 mL centrifuge tube. Centrifuge at 1600 rpm for 5 min to collect cells. Wash once with 1×PBS. Add 3 mL red blood cell lysis buffer (diluted with ddH2O) to each tube and incubate for 5 min. After lysis, add 10 mL 1×PBS to each tube to terminate lysis. Centrifuge at 1600 rpm for 5 min.

[10] = test system: 4T1 cells; type: in vivo, BALB/c mice
Procedure: 4T1 cells were cultured and expanded in vitro. […] A 100 µL aliquot of this suspension was injected subcutaneously into the left forelimb axilla of female BALB/c mice. […] Daily oral administration was performed for 3 weeks. During the treatment period, mouse body weight and tumor diameter were measured daily. At the end of the experiment, mice were euthanized by cervical dislocation, and tumors were removed for weighing. Tumor volume (TV) was calculated using the formula: TV = 1/2 × a × b^2, where a represents the longest diameter of the tumor and b represents the shortest diameter.

[11] = test system: Hepa1-6; conditions: 30 mg/kg intraperitoneal injection, 14 consecutive days; cited from earlier work
[12] = test system: tumor cells; conditions: in vitro cell models; cited from earlier work
[13] = physchem; conditions: deionized water, 37 °C, thermodynamic from solid
[14] = Hepa1-6, oral 40 µmol/kg/d, 2 weeks

With `C=C1C(=O)O[C@@H]2[C@H]3C(C)=CC[C@@]34O[C@@]4(C)CC[C@@H]12` [Arg, Arglabin] the “CCR2 mRNA suppression rate in MDSCs (%)” value ([1]; 1 µM) was 22.3%, the “CCR2 mRNA suppression rate in MDSCs (%)” value ([1]; 10 µM) was 69.7% and the “Tumor Inhibition Rate (%)” value ([2]; mouse, in vivo, po) was 95.86%. For the same compound, the “Tumor weight” value ([2]; mouse, in vivo, po) was 0.04 ± 0.03 g, the degradation rate [3] was 50% and the IC50 [4] was “micromolar level”. The “Suppression Rate (%)” value ([5]; 1 µM) was 42.5%, the “Suppression Rate (%)” value ([5]; 10 µM) was 73.2% and the “Tumor Suppression Rate (%)” value [6] was 39.43%. The “Tumor weight” value [6] was 5.18 ± 0.61 g, the oral bioavailability [7] was 5% and the antitumor effects ([8]; CT26, oral 80 µmol/kg/day, 3 weeks) was “tumor-inhibiting effects”. The “Tumor Inhibition Rate (%)” value ([8]; mouse, in vivo, po) was 34.94%, the “Tumor weight” value ([8]; mouse, in vivo, po) was 5.31 ± 0.51 g and the “Spleen MDSCs (%)” value [9] was 27.89±4.72 %. For the same compound, the “Spleen T cells (%)” value [9] was 27.02±4.07%, the “Tumor T cells(%)” value [9] was 17.72±6.12 % and the “Tumor-associated MDSCs (%)” value [9] was 27.0±7.93 %. The antitumor effects ([10]; 4T1, oral 40 µmol/kg/day, 3 weeks) was “no significant antitumor effects”, the “Tumor Inhibition Rate (%)” value ([10]; mouse, in vivo, po) was 12.87% and the “Tumor weight” value ([10]; mouse, in vivo, po) was 1.58 ± 0.21 g.

For `C=C1C(=O)O[C@H]2[C@H]1CCC(C)=C1CC[C@@](C)(O)[C@@H]12` [MCL, Micheliolide], the “Tumor Inhibition Rate (%)” value [2, 14] is listed as 70.52%, the “Tumor weight” value [2, 14] is listed as 0.27 ± 0.24 g and the “tumor weight inhibition rate” value [11] is listed as 50%. The IC50 [12] was “micromolar range” and the solubility [13] was 62 µg/mL (≈ 250 µM).
